Data reported in patent US6203976A, “Methods of preparing compositions comprising chemicals capable of transcriptional modulation” (OSI Pharmaceuticals, Inc., priority 1994, dated 2001).
Where “and” joins values, the source holds several entries; their conditions need not be identical. Equal values may be shown once. Read-outs that look alike come from different tables or passages of the source.

Key:
[1] = system: human growth hormone (532) promoter; experiment: High-throughput luciferase reporter assay, human Growth Hormone promoter (Screen III); type: cell-based; details: for FOLD INDUCTION RELATIVE TO SOLVENT CONTROL, hGH: Screen III activators
[2] = system: MMTV (M10) promoter; experiment: High-throughput luciferase reporter assay, MMTV promoter (Screen III); type: cell-based, mouse; details: for FOLD INDUCTION RELATIVE TO SOLVENT CONTROL, MMTV: Screen III activators
Experimental: pMluci and pSV2Neo, an antibiotic resistance plasmid (112), were co-transfected into NIH/3T3 mouse fibroblast cells using the calcium phosphate precipitation method (103) with a commercially available kit (Pharmacia, Piscataway N.J.). Two days later, cells were transferred to media containing 0.4 mg/ml G418 and were grown for an additional 10-14 days. G418-resistant clones were isolated by standard methods. Once sufficient cell numbers were obtained, clones were analyzed based on several criteria: constitutive luciferase production, induction of luciferase expression by dexamethasone (1 μm, Sigma, St. Louis, Mo.), satisfactory attachment to microtiter plates used in the high-throughput screen and acceptable standard deviation in multiple luciferase expression assays (see below for assay protocol). This analysis was carried out using the luciferase assay conditions described above. Of the clones which satisfied the above criteria for the high throuphput screen, one clone, M10, was selected for use.

[3] = system: human G-CSF (G21) promoter; experiment: High-throughput luciferase reporter assay, G-CSF promoter (Screen III); details: G21 cells, 6 hours; for FOLD INDUCTION RELATIVE TO SOLVENT CONTROL, GCSF: Screen III activators; for FOLD INHIBITION RELATIVE TO SOLVENT CONTROL, GCSF: Screen III inhibitors
[4] = Screen III inhibitors, 532 cells, 6 hours
[5] = Screen III inhibitors, M10 cells, 6 hours

| Compound | FOLD INHIBITION RELATIVE TO SOLVENT CONTROL, hGH [1, 4] [fold] | FOLD INHIBITION RELATIVE TO SOLVENT CONTROL, MMTV [2, 5] [fold] | FOLD INDUCTION RELATIVE TO SOLVENT CONTROL, hGH ([1]; 532 cells, 6 hours) [fold] | FOLD INDUCTION RELATIVE TO SOLVENT CONTROL, MMTV ([2]; M10 cells, 6 hours) [fold] | FOLD INDUCTION RELATIVE TO SOLVENT CONTROL, GCSF [3] [fold] | other results |
| --- | --- | --- | --- | --- | --- | --- |
| O=c1c(O)c(-c2ccc(O)cc2O)oc2cc(O)cc(O)c12 [compound 371] | 0.41 | 0.89 |  |  |  |  |
| O=C(O)c1ccc2c3c(ncnc13)-c1ccccc1C2=O [compound 378] |  |  | 0.26 | 0.59 | 4.12 |  |
| CCN(CC)CCCC(C)Nc1c2ccc(Cl)cc2nc2ccc(OC)cc12 (stereo not shown) [compound 423] |  |  | 0.56 | 0.64 | 2.39 |  |
| O=c1ccc2[n+]([O-])c3ccc(O)cc3oc-2c1 [compound 427] |  |  | 0.43 | 0.71 | 3.14 |  |
| Cc1cc(C)nc(NS(=O)(=O)c2ccc(N)cc2)n1 [compound 443] | 4.76 | 0.79 |  |  |  | FOLD INHIBITION RELATIVE TO SOLVENT CONTROL, GCSF [3]: 0.60 fold |
| c1ccc(-c2cccc(-c3ccccn3)n2)nc1 [compound 453] |  |  | 0.58 |  | 0.79 | FOLD INDUCTION RELATIVE TO SOLVENT CONTROL, MMTV ([2]; M10 cells, 6 hours, 360 min): 13.3 fold and 13.30 fold; ability to activate the MMTV promoter with methanol replacing DMSO ([2]; chemical dissolved in methanol instead of DMSO): did not affect its ability to activate the MMTV promoter |
| c1ncncn1 [compound 473] |  |  | 0.50 | 0.87 | > 3 |  |
| CC(C=O)=CC=CC(C)=CC=CC=C(C)C=CC=C(C)C=CC1=C(C)CCCC1(C)C [compound 519] |  |  | 0.68 | 2.76 | 1.15 |  |
| O=P(O)(O)Oc1c[nH]c2ccc(Br)c(Cl)c12 [compound 541] | 6.25 | 0.86 |  |  |  | FOLD INHIBITION RELATIVE TO SOLVENT CONTROL, GCSF [3]: 0.90 fold |
| Nc1nc(=O)n([C@H]2C[C@H](O)[C@@H](CO)O2)cc1Br [compound 542] |  |  | 1.08 | 1.26 | 6.28 |  |
| O=c1[nH]c(=O)n([C@H]2C[C@H](O)[C@@H](CO)O2)cc1Br [compound 543] |  |  | 0.72 | 0.98 | 7.17 |  |
| C[C@]12C=CC(=O)C=C1CC[C@@H]1[C@@H]2[C@@H](O)C[C@@]2(C)[C@H]1CC[C@]2(O)C(=O)CO [compound 764] |  |  |  |  |  | FOLD INHIBITION RELATIVE TO SOLVENT CONTROL, hGH [1]: 4.54; FOLD INHIBITION RELATIVE TO SOLVENT CONTROL, MMTV [2]: 0.59 |
| NC(=O)c1ccccc1O [compound 798] | 0.90 | 0.68 |  |  |  |  |
| Cc1n[nH]cc1Br [compound 2082] | 0.65 | 1.23 |  |  |  |  |
| ClCCCCCBr [compound 2097] |  |  | 0.88 | 1.22 |  |  |
| OCc1cccc(Cl)c1 [compound 2121] | 0.40 | 1.14 |  |  |  |  |
